Counter-ions that a name gives are not always drawn.
test system: not given

Row | Compound | melting point [°C]
1 | O=S(=O)(c1ccccc1)c1cn(CC2CCCN2Cc2ccccc2)c2ncccc12 (stereo not shown) (as salt: hydrochloride) [Example 9] | 218 to 220
2 | CN1CCCC1Cn1cc(S(=O)(=O)c2cccc(F)c2)c2cccnc21 (stereo not shown) (as salt: hydrochloride) [Example 12] | 208 to 209
3 | O=S(=O)(c1cn(CC2CCCN2Cc2ccccc2)c2ncccc12)c1c(Cl)nc2sccn12 (stereo not shown) [Example 13] | 102 to 103

Results, then the compound that gave them:

Row | melting point [°C] | Compound
4 | 128 to 129 | O=S(=O)(c1cccc(F)c1)c1cn(CC2CCCN2Cc2ccccc2)c2ncccc12 (stereo not shown) (as salt: hydrochloride) [Example 10]
5 | 181 to 182 | O=S(=O)(c1cccc(F)c1)c1cn(CC2CCCN2)c2ncccc12 (stereo not shown) (as salt: hydrochloride) [Example 11]
6 | 246 to 247 | O=S(=O)(c1cn(CC2CCCN2)c2ncccc12)c1c(Cl)nc2sccn12 (stereo not shown) (as salt: hydrochloride) [Example 14]
7 | 106 to 107 | O=S(=O)(c1ccc(Cl)s1)c1cn(CC2CCCN2)c2ncccc12 (stereo not shown) (as salt: hydrochloride) [Example 15]

biological target: human cloned 5-HT6 receptors (Homo sapiens, UniProt P50406)
Sequence (P50406 whole entry): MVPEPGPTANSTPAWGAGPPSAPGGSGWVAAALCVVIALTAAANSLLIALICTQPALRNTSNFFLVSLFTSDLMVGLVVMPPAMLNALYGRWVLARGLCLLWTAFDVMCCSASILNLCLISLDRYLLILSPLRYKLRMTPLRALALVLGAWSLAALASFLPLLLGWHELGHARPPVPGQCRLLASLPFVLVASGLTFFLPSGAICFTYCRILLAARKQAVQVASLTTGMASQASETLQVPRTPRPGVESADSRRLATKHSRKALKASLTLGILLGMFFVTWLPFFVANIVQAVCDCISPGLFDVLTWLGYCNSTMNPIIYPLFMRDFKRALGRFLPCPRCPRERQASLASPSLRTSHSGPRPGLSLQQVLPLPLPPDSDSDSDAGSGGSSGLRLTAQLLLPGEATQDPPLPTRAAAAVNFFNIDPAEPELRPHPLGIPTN

Row | Compound | Ki [nM]
8 | O=S(=O)(c1cccc(Cl)c1)c1cn(CC2CCCN2Cc2ccccc2)c2ncccc12 (stereo not shown) [Example 6, 1-[(1-Benzylpyrrolidin-2-yl)methyl]-3-(3-chlorophenylsulfonyl)-1H-pyrrolo[2,3-b]pyridine] | 132
9 | CN1CCCC1Cn1cc(S(=O)(=O)c2cccc(Cl)c2)c2cccnc21 (stereo not shown) [Example 8, 3-(3-Chlorophenylsulfonyl)-1-[(1-methylpyrrolidin-2-yl)methyl]-1H-pyrrolo[2,3-b]pyridine Hydrochloride] | 7
10 | O=S(=O)(c1ccccc1)c1cn(CC2CCCN2Cc2ccccc2)c2ncccc12 (stereo not shown) [Example 9] | 163
11 | CN1CCCC1Cn1cc(S(=O)(=O)c2cccc(F)c2)c2cccnc21 (stereo not shown) [Example 12] | 6
12 | O=S(=O)(c1cn(CC2CCCN2Cc2ccccc2)c2ncccc12)c1c(Cl)nc2sccn12 (stereo not shown) [Example 13] | 57

Next, values leading:

Row | Ki [nM] | Compound
13 | 12 | O=S(=O)(c1ccccc1)c1cn(C[C@H]2CCCN2)c2ncccc12 [Example 3, 3-(Phenylsulfonyl)-1-[(2R)-pyrrolidin-2-ylmethyl]-1H-pyrrolo[2,3-b]pyridine Hydrochloride]
14 | 66 | O=S(=O)(c1ccccc1)c1cn(C[C@@H]2CCCN2)c2ncccc12 [Example 4, 3-(Phenylsulfonyl)-1-[(2S)-pyrrolidin-2-ylmethyl]-1H-pyrrolo[2,3-b]pyridine Hydrochloride]
15 | 3 | O=S(=O)(c1cccc(Cl)c1)c1cn(CC2CCCN2)c2ncccc12 (stereo not shown) [Example 7, 3-(3-Chlorophenylsulfonyl)-1-(pyrrolidin-2-ylmethyl)-1H-pyrrolo[2,3-b]pyridine]
16 | 174 | O=S(=O)(c1cccc(F)c1)c1cn(CC2CCCN2Cc2ccccc2)c2ncccc12 (stereo not shown) [Example 10]
17 | 9 | O=S(=O)(c1cccc(F)c1)c1cn(CC2CCCN2)c2ncccc12 (stereo not shown) [Example 11]
18 | 2 | O=S(=O)(c1cn(CC2CCCN2)c2ncccc12)c1c(Cl)nc2sccn12 (stereo not shown) [Example 14]
19 | 7 | O=S(=O)(c1ccc(Cl)s1)c1cn(CC2CCCN2)c2ncccc12 (stereo not shown) [Example 15]

— patent US7411064B2, “1-Heterocyclylalkyl-3-sulfonylazaindole or -azaindazole derivatives as 5-hydroxytryptamine-6 ligands” (Wyeth, priority 2002, dated 2008)
